The values that follow come from patent US20240066085A1, “MATRIX METALLOPROTEASE 1 EXPRESSION INHIBITOR, SKIN EXTERNAL AGENT, AND USE FOR INHIBITION OF MATRIX METALLOPROTEASE 1 EXPRESSION” (NATIONAL UNIVERSITY CORPORATION KOBE UNIVERSITY, priority 2020, published 2024).

One assay has as its system MMP-1 expression. Put plainly: UVA-induced MMP-1 expression in HaCaT after PKCδ inhibitor pretreatment. The format is cell-based, human. The note with it: HaCaT pretreated with PKCδ inhibitor, then UVA irradiation. How it is done: (§1) The present inventors clarified an expression mechanism of MMP-1 through an experiment. […] The experiment was performed by irradiating HaCaT (epidermal keratinocyte cell line established from a human adult under special ca 2+ concentration and temperature conditions) with ultraviolet rays (UVA).
When UVA irradiation is performed on HaCaT, the MMP-1 expression amount increases in an irradiation-dependent manner. […] Therefore, it was clarified that PKCδ is involved in expression pathway of MMP-1.

The subject of assay [1] is ERK and MEK phosphorylation. Nature of the assay: UVA-induced phosphorylation of ERK and MEK in HaCaT after PKCδ inhibitor pretreatment. The format is cell-based, human. Conditions: HaCaT pretreated with PKCδ inhibitor, then UVA irradiation. Here is the method:
as §1
However, when a pretreatment of adding rotterlin being a PKCδ inhibitor to HaCaT was performed, and then UVA irradiation was performed on HaCaT, induced expression of phosphorylation of ERK and MEK was suppressed. Therefore, it was clarified that: the activity of PKCδ induces phosphorylation of MEK and ERK downstream of PKC6; and expression of MMP-1 is promoted through c-Jun and the like.

Regarding `CC(=O)c1c(O)c(C)c(O)c(Cc2c(O)c3c(c(C(=O)/C=C/c4ccccc4)c2O)OC(C)(C)C=C3)c1O` [rotterlin], the MMP-1 expression result in the assay on MMP-1 expression is reported as “significantly suppressed”. Further, the “induced expression of phosphorylation of ERK and MEK” value in assay [1] was “suppressed”.
